# Assays:
# [1] = target: T1, Autotaxin (Rattus norvegicus, UniProt Q64610); test: Inhibition of recombinant rat ATX using LPC 18:1 as substrate after 2 hrs by rapidfire/MS-based analysis
# [2] = target: T1, Autotaxin; test: Inhibition of ATX in rat whole blood using LPA 17:0 as substrate after 1 hr by LC-MS/MS analysis
# [3] = target: Voltage-gated inwardly rectifying potassium channel KCNH2 (Homo sapiens, UniProt Q12809)
# Description: Inhibition of human ERG expressed in HEK293 cells by patch clamp assay
# [4] = physchem; settings: pH 2.2 buffer solution
# Description: Aqueous solubility of the compound in pH 2.2 buffer solution after 24 hrs by LC-UV analysis
# [5] = physchem; settings: pH 4.5 buffer solution
# Description: Aqueous solubility of the compound in pH 4.5 buffer solution after 24 hrs by LC-UV analysis
# [6] = physchem; settings: pH 6.8 buffer solution
# Description: Aqueous solubility of the compound in pH 6.8 buffer solution after 24 hrs by LC-UV analysis
# [7] = in vitro; settings: human, liver microsomes
# Description: Clearance in human liver microsomes at 1 uM in presence of NADPH by LC-MS/MS analysis relative to hepatic blood flow
# [8] = in vitro; settings: rat, liver microsomes
# Description: Clearance in rat liver microsomes at 1 uM in presence of NADPH by LC-MS/MS analysis relative to hepatic blood flow
# [9] = in vitro; settings: human, Caco-2
# Description: Apparent permeability across apical to basolateral side in human Caco2 cells at 10 uM measured up to 90 mins
# [10] = Protein binding in human plasma; type: ADME, cell-free; settings: read-out: PPB
# [11] = Protein binding in rat plasma; type: ADME, cell-free; settings: read-out: PPB
# [12] = system: Rattus norvegicus; test: Dose normalized AUC in Han Wistar rat at 1 mg/kg, iv; type: ADME, organism-based; settings: in vivo
# [13] = system: Rattus norvegicus; test: Dose normalized AUC in Han Wistar rat at 10 mg/kg, po; type: ADME, organism-based; settings: in vivo
# [14] = system: Rattus norvegicus; test: Clearance in Han Wistar rat at 1 mg/kg, iv relative to hepatic blood flow; type: ADME, organism-based; settings: in vivo
# [15] = Volume of distribution at steady state in Han Wistar rat at 1 mg/kg, iv; type: ADME, organism-based; settings: in vivo, read-out: Vdss
# [16] = system: Rattus norvegicus; test: Dose normalized Cmax in Han Wistar rat at 10 mg/kg, po; type: ADME, organism-based; settings: in vivo
# [17] = Tmax in Han Wistar rat at 10 mg/kg, po; type: ADME, organism-based; settings: in vivo
# [18] = Half life in Han Wistar rat at 1 mg/kg, iv; type: ADME, organism-based; settings: in vivo
# [19] = Half life in Han Wistar rat at 10 mg/kg, po; type: ADME, organism-based; settings: in vivo
# [20] = Oral bioavailability in Han Wistar rat at 10 mg/kg; type: ADME, organism-based; settings: in vivo
# [21] = system: Rattus norvegicus; test: In vivo inhibition of ATX in Han Wistar rat assessed as decrease in plasma LPA 18:0 species level measured up to 24 hrs by LC-MS/MS analysis relative to control; type: functional
# [22] = system: Rattus norvegicus; test: In vivo inhibition of ATX in Han Wistar rat assessed as decrease in plasma LPA 18:2 species level measured up to 24 hrs by LC-MS/MS analysis relative to control; type: functional
# [23] = system: Rattus norvegicus; test: In vivo inhibition of ATX in Han Wistar rat assessed as decrease in plasma LPA 16:0 species level measured up to 24 hrs by LC-MS/MS analysis relative to control; type: functional
# [24] = system: Rattus norvegicus; test: In vivo inhibition of ATX in Han Wistar rat assessed as decrease in plasma LPA 18:1 species level measured up to 24 hrs by LC-MS/MS analysis relative to control; type: functional
# [25] = system: Rattus norvegicus; test: In vivo inhibition of ATX in Han Wistar rat assessed as decrease in plasma LPA 20:4 species level measured up to 24 hrs by LC-MS/MS analysis relative to control; type: functional
# [26] = target: 5-hydroxytryptamine receptor 2A (Homo sapiens) (UniProt P28223); test: Inhibition of recombinant human 5-HT2A receptor at 10 uM after 60 mins by scintillation counting analysis relative to control
# 5-hydroxytryptamine receptor 2A (Homo sapiens), sequence (P28223 whole entry): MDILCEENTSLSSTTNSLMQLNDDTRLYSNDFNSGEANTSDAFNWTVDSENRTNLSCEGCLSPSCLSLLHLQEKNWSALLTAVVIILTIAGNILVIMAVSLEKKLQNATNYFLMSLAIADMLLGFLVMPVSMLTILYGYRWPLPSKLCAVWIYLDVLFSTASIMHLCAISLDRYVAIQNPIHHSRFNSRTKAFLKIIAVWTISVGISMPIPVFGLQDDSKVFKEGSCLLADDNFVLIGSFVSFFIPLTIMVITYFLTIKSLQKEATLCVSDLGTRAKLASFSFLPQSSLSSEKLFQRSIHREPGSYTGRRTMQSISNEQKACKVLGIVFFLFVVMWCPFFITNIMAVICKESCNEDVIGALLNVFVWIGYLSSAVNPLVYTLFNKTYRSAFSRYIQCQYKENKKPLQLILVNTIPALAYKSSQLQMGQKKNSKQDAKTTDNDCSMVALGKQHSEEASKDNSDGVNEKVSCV
# [27] = target: L-type calcium channel (Homo sapiens, UniProt O60840+Q01668+Q13698+Q13936); test: Inhibition of L-type calcium channel (unknown origin) at 10 uM relative to control; type: protein assay
# [28] = species: Homo sapiens; test: Inhibition of sodium channel site 2 (unknown origin) at 10 uM relative to control
# [29] = target: Sodium-dependent noradrenaline transporter (Homo sapiens) (UniProt P23975); test: Inhibition of norepinephrine transporter (unknown origin) at 10 uM relative to control
# Sodium-dependent noradrenaline transporter (Homo sapiens), sequence (P23975 whole entry): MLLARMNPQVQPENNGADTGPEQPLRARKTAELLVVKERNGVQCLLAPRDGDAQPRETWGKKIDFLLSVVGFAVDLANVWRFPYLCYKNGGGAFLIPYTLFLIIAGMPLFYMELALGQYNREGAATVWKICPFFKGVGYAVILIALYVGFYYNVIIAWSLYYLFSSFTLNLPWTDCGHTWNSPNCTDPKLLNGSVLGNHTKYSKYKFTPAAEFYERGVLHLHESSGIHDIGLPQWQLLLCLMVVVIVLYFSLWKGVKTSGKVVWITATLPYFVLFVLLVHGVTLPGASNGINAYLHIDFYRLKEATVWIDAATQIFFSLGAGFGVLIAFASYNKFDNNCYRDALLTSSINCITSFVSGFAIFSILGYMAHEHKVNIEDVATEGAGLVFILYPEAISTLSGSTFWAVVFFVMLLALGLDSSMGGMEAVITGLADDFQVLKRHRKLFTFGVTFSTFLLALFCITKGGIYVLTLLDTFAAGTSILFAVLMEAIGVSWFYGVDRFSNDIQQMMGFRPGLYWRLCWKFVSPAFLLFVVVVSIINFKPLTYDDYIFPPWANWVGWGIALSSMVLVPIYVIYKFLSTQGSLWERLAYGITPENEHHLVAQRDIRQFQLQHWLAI
# [30] = system: Rattus norvegicus; test: In vivo inhibition of ATX in Han Wistar rat assessed as decrease in plasma LPA species level measured up to 24 hrs by LC-MS/MS analysis; type: functional, organism-based
# Voltage-gated inwardly rectifying potassium channel KCNH2, sequence (Q12809 whole entry): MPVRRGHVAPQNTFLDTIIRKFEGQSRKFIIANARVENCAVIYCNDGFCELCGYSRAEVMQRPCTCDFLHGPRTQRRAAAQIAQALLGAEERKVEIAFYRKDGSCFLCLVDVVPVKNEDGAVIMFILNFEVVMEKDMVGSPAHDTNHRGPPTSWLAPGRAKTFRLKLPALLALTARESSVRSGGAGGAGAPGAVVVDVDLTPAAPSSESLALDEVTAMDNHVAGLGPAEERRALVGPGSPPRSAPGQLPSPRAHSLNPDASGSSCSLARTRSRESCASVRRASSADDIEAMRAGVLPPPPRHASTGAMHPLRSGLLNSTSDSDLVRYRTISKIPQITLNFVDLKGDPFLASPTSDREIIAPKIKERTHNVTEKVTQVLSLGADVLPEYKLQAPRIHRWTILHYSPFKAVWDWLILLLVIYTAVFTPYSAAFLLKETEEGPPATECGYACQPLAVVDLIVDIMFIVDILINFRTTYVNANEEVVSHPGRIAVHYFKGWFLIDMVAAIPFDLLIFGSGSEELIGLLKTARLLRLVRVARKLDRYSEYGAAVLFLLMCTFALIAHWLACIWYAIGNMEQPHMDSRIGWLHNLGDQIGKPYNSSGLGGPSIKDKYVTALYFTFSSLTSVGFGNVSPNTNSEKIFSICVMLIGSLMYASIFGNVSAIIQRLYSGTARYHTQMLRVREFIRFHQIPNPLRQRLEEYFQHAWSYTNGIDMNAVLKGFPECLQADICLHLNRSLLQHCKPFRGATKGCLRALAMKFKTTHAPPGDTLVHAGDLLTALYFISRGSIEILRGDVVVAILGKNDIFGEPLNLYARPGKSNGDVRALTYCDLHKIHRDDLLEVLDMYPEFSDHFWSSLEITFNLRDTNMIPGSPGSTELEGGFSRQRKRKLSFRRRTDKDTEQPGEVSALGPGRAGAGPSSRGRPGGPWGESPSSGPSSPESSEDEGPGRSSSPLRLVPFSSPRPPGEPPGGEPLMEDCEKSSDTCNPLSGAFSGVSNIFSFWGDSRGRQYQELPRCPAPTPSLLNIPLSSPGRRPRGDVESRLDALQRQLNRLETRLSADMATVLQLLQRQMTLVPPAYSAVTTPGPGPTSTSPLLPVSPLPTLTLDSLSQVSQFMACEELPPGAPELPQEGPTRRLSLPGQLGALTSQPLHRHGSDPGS
structure (smiles),measurement,setting,value
N#Cc1cc(COC(=O)N2C[C@@H]3[C@@H](CNC(=O)c4ccc5[nH]nnc5c4)[C@@H]3C2)cc(C(=O)OC(F)(F)F)c1,IC50,[1],1.5 nM
same,IC50,[2],18 nM
same,IC50,[3],> 10000 nM
same,solubility at 24 h,[4],< 1 µg/mL
same,solubility at 24 h,[5],< 1 µg/mL
same,solubility at 24 h,[6],< 1 µg/mL
same,hepatic extraction ratio at 1 µM,[7],0.29
same,hepatic extraction ratio at 1 µM,[8],0.28
same,"Papp A→B at 1.5 h, 10 µM",[9],8 ×10⁻⁶ cm/s
O=C(NC[C@@H]1[C@H]2CN(C(=O)OCc3cc(C(F)(F)F)cc(C(F)(F)F)c3)C[C@@H]12)c1ccc2[nH]nnc2c1 [BI 2545],IC50,[1],3.4 nM
same,IC50,[2],96 nM
same,fraction unbound,[10],< 0.002
same,fraction unbound,[11],< 0.002
same,AUC/dose,[12],2320 nM·h
same,AUC/dose,[13],675 nM·h
same,CL,[14],10%
same,Vd,[15],0.9 L/kg
same,Cmax/dose,[16],149 nM
same,Tmax,[17],1.7 h
same,half-life,[18],1.8 h
same,half-life,[19],3.4 h
same,bioavailability,[20],30%
same,inhibition (INH),[21],<=90%
same,inhibition (INH),[22],<=90%
same,inhibition (INH),[23],<=90%
same,inhibition (INH),[24],<=90%
same,inhibition (INH),[25],<=90%
same,inhibition,[26],55%
same,inhibition at 10 µM,[27],80%
same,inhibition,[28],66%
same,inhibition,[29],61%
same,IC50,[30],100 nM
same,IC50,[3],> 10000 nM
same,solubility at 24 h,[4],< 1 µg/mL
same,solubility at 24 h,[5],< 1 µg/mL
same,solubility at 24 h,[6],< 1 µg/mL
same,"Papp A→B at 1.5 h, 10 µM",[9],9 ×10⁻⁶ cm/s
O=C(NC[C@@H]1[C@H]2CN(C(=O)CCc3cc(Cl)cc(Cl)c3)C[C@@H]12)c1ccc2[nH]c(=O)oc2c1,IC50,[1],2.3 nM
same,IC50,[2],7 nM
same,IC50,[3],8100 nM
same,solubility at 24 h,[4],< 1 µg/mL
same,solubility at 24 h,[5],< 1 µg/mL
same,solubility at 24 h,[6],< 1 µg/mL
same,hepatic extraction ratio at 1 µM,[7],0.94
same,hepatic extraction ratio at 1 µM,[8],0.88
same,"Papp A→B at 1.5 h, 10 µM",[9],18 ×10⁻⁶ cm/s
N#Cc1cc(COC(=O)N2C[C@@H]3[C@@H](CNC(=O)NCCCc4cnn[nH]4)[C@@H]3C2)cc(C(=O)OC(F)(F)F)c1,IC50,[1],5.5 nM
same,IC50,[2],65 nM
O=C(NC[C@@H]1[C@H]2CN(C(=O)OCc3cc(C(F)(F)F)cc(C(F)(F)F)c3)C[C@@H]12)c1ccc2[nH]c(=O)oc2c1,IC50,[1],2.3 nM
same,IC50,[2],4.5 nM
same,solubility at 24 h,[4],< 1 µg/mL
same,solubility at 24 h,[5],< 1 µg/mL
same,solubility at 24 h,[6],< 1 µg/mL
same,"Papp A→B at 1.5 h, 10 µM",[9],108 ×10⁻⁶ cm/s
O=C(CCN1CCN(C(=O)OCc2cc(Cl)cc(Cl)c2)CC1)c1ccc2[nH]c(=O)oc2c1,IC50,[2],307 nM
same,IC50,[3],480 nM
Cc1cc(COC(=O)N2C[C@@H]3[C@@H](CNC(=O)c4ccc5[nH]c(=O)oc5c4)[C@@H]3C2)no1,IC50,[1],1670 nM
same,IC50,[3],> 10000 nM
same,solubility at 24 h,[4],> 86 µg/mL
same,solubility at 24 h,[5],> 93 µg/mL
same,solubility at 24 h,[6],63 µg/mL
same,hepatic extraction ratio at 1 µM,[7],< 0.23
same,hepatic extraction ratio at 1 µM,[8],< 0.22
same,"Papp A→B at 1.5 h, 10 µM",[9],2 ×10⁻⁶ cm/s
O=C(NC[C@@H]1[C@H]2CN(C(=O)/C=C/c3cc(Cl)cc(Cl)c3)C[C@@H]12)c1ccc2[nH]c(=O)oc2c1,IC50,[1],1.7 nM
same,IC50,[2],1900 nM
same,IC50,[3],4200 nM
same,solubility at 24 h,[4],< 1 µg/mL
same,solubility at 24 h,[5],< 1 µg/mL
same,solubility at 24 h,[6],< 1 µg/mL
same,hepatic extraction ratio at 1 µM,[7],0.25
same,hepatic extraction ratio at 1 µM,[8],> 0.22
same,"Papp A→B at 1.5 h, 10 µM",[9],38 ×10⁻⁶ cm/s
N#Cc1cc(COC(=O)N2C[C@@H]3[C@@H](CNC(=O)N4CCc5[nH]nnc5C4)[C@@H]3C2)cc(C(=O)OC(F)(F)F)c1,IC50,[1],1.3 nM
same,IC50,[2],33 nM
same,IC50,[3],> 10000 nM
same,solubility at 24 h,[4],32 µg/mL
same,solubility at 24 h,[5],26 µg/mL
same,solubility at 24 h,[6],5 µg/mL
same,hepatic extraction ratio at 1 µM,[7],0.44
same,hepatic extraction ratio at 1 µM,[8],0.43
same,"Papp A→B at 1.5 h, 10 µM",[9],7 ×10⁻⁶ cm/s
